# Reference: article PMC10176470, “Engaging a Non-catalytic Cysteine Residue Drives Potent and Selective Inhibition of Caspase-6” (Journal of the American Chemical Society, 2023)
# Where two headings read alike, the source gives them in different places.
# Columns and labels:
# Assay type in all cases: cell-based
# [1] = molecular target: proteins of HEK293T cells transiently overexpressing caspase-6 (Homo sapiens, UniProt Q96F25); details: Probe; protein ALG14 Q96F25
# [2] = molecular target: proteins of HEK293T cells transiently overexpressing caspase-6 (Homo sapiens, UniProt O14880); details: exp_ref Probe; protein MGST3 (O14880); analysis C6
# proteins of HEK293T cells transiently overexpressing caspase-6 (Homo sapiens, UniProt O14880), sequence (O14880 whole entry): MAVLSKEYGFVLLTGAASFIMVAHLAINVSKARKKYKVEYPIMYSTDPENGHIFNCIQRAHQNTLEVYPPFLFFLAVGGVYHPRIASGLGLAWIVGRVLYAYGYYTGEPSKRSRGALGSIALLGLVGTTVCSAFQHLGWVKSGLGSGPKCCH
# [3] = molecular target: proteins of HEK293T cells transiently overexpressing caspase-6 (Homo sapiens, UniProt P30153); details: exp_ref Probe; protein PPP2R1A (P30153); analysis C6
# proteins of HEK293T cells transiently overexpressing caspase-6 (Homo sapiens, UniProt P30153), sequence (P30153 whole entry): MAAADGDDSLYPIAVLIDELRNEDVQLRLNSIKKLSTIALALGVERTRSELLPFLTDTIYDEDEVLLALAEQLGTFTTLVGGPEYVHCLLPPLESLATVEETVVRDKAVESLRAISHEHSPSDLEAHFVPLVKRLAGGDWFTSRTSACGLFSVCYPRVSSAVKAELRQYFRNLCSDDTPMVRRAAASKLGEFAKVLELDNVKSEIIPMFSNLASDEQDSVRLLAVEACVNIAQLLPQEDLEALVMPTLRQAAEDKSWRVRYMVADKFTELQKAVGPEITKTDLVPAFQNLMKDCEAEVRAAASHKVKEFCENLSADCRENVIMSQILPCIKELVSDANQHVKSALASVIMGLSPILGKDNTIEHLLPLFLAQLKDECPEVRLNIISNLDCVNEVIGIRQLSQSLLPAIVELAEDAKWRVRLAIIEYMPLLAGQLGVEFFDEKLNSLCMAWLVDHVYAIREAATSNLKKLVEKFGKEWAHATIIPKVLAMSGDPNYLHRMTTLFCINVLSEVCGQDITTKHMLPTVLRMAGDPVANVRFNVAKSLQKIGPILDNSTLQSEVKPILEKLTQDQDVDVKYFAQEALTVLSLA
# [4] = molecular target: proteins of HEK293T cells transiently overexpressing caspase-6 (Homo sapiens, UniProt P49411); details: exp_ref Probe; protein TUFM (P49411); analysis C6
# [5] = molecular target: T1, proteins of HEK293T cells transiently overexpressing caspase-6 (Homo sapiens, UniProt Q13162)
# T1 sequence (Q13162 38-271): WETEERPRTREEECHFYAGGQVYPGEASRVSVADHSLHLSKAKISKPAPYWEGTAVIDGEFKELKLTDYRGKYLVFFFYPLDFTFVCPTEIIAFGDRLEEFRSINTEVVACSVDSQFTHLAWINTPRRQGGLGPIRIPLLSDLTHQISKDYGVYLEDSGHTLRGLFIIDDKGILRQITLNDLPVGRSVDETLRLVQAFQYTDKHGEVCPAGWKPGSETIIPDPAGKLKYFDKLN
# [6] = molecular target: proteins of HEK293T cells transiently overexpressing caspase-6 (Homo sapiens, UniProt P24752); details: Probe; protein ACAT1 P24752
# [7] = molecular target: proteins of HEK293T cells transiently overexpressing caspase-6 (Homo sapiens, UniProt P13804); details: exp_ref Probe; protein ETFA (P13804); analysis C6
# proteins of HEK293T cells transiently overexpressing caspase-6 (Homo sapiens, UniProt P13804), sequence (P13804 20-333): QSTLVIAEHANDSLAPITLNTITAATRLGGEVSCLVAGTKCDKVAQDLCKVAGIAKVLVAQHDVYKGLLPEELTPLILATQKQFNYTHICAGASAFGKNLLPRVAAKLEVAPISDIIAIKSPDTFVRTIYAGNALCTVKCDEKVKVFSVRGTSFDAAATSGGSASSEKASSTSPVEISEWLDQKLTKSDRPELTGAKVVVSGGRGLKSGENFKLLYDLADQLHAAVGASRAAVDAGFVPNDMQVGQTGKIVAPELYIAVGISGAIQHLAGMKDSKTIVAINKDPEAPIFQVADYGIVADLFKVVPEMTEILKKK
# [8] = molecular target: proteins of HEK293T cells transiently overexpressing caspase-6 (Homo sapiens, UniProt P08670)
# proteins of HEK293T cells transiently overexpressing caspase-6 (Homo sapiens, UniProt P08670), sequence (P08670 whole entry): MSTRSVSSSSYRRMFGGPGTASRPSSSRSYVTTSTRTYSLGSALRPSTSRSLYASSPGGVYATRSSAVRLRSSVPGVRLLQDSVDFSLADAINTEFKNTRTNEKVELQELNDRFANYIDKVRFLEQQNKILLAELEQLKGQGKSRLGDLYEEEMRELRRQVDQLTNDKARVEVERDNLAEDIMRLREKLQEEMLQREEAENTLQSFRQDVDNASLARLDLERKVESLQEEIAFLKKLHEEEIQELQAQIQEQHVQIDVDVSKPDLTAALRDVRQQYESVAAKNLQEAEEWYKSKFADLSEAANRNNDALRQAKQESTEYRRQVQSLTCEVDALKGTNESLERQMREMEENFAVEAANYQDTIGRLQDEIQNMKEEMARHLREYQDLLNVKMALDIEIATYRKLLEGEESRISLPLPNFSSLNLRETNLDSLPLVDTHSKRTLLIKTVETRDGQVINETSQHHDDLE
# [9] = molecular target: proteins of HEK293T cells transiently overexpressing caspase-6 (Homo sapiens, UniProt Q9Y5M8); details: exp_ref Probe; protein SRPRB (Q9Y5M8); analysis C6
# proteins of HEK293T cells transiently overexpressing caspase-6 (Homo sapiens, UniProt Q9Y5M8), sequence (Q9Y5M8 whole entry): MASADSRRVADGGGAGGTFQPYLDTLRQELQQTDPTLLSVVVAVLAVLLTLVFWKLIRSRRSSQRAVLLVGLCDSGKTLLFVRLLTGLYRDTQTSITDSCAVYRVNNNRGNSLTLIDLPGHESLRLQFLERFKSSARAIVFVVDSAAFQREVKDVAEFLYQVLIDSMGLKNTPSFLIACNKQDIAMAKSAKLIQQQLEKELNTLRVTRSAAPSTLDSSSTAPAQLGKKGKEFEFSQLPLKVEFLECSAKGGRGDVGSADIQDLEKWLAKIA
# [10] = molecular target: T2, proteins of HEK293T cells transiently overexpressing caspase-6 (Homo sapiens, UniProt P30519); details: protein HMOX2 (P30519)
# T2 sequence (P30519 1-316): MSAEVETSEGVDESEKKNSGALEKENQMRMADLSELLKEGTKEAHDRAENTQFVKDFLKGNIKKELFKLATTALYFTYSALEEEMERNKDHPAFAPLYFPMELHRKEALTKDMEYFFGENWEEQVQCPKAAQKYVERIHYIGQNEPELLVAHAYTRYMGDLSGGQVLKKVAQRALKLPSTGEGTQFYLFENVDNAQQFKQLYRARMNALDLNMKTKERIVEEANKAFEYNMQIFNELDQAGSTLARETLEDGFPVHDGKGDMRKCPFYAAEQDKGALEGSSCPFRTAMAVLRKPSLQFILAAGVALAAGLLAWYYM
# [11] = molecular target: proteins of HEK293T cells transiently overexpressing caspase-6 (Homo sapiens, UniProt P62263); details: exp_ref Probe; protein RPS14 (P62263); analysis C6
# [12] = molecular target: proteins of HEK293T cells transiently overexpressing caspase-6 (Homo sapiens, UniProt Q9NX40); details: protein OCIAD1 (Q9NX40); exp_ref Probe; analysis C6
# [13] = molecular target: proteins of HEK293T cells transiently overexpressing caspase-6 (Homo sapiens, UniProt P25705); details: exp_ref Probe; protein ATP5A1 (P25705); analysis C6
# proteins of HEK293T cells transiently overexpressing caspase-6 (Homo sapiens, UniProt P25705), sequence (P25705 44-553): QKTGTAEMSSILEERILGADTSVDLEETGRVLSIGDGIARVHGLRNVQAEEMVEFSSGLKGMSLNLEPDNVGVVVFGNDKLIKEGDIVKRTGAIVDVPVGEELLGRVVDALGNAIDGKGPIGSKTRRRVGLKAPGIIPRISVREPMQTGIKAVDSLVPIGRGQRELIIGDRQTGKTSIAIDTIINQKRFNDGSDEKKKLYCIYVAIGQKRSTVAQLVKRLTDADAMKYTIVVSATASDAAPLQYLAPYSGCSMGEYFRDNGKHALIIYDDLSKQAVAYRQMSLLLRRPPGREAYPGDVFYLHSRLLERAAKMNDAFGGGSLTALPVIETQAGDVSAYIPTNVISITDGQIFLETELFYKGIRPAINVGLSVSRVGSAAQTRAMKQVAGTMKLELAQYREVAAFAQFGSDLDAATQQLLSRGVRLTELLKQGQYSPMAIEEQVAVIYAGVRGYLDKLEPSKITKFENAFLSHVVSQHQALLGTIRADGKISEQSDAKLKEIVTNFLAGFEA
# [14] = molecular target: proteins of HEK293T cells transiently overexpressing caspase-6 (Homo sapiens, UniProt P06733); details: protein ENO1 (P06733)
# proteins of HEK293T cells transiently overexpressing caspase-6 (Homo sapiens, UniProt P06733), sequence (P06733 whole entry): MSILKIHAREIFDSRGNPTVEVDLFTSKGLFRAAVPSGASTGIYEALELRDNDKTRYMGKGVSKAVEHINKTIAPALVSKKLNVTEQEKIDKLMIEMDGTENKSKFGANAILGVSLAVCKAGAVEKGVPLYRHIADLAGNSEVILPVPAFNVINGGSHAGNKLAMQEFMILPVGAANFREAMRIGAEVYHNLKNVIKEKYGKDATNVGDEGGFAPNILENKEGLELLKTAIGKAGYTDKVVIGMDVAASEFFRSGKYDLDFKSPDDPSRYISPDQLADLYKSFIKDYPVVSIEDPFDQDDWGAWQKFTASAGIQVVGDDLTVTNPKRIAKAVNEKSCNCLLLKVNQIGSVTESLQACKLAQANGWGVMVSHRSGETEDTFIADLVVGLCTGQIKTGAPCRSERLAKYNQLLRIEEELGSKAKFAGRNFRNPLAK
# [15] = molecular target: T3, proteins of HEK293T cells transiently overexpressing caspase-6 (Homo sapiens, UniProt Q14103); details: protein HNRNPD (Q14103)
# T3 sequence (Q14103 1-355): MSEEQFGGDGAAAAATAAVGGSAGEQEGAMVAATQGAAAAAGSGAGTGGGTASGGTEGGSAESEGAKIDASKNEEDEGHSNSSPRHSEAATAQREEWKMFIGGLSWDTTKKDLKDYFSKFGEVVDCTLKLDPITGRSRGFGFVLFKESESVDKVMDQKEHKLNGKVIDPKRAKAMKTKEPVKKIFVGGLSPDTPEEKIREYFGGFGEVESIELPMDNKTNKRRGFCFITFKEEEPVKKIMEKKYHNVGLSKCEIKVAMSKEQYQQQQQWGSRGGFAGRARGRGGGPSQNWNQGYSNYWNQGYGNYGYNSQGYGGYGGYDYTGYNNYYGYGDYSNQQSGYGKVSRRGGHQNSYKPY
# [16] = molecular target: proteins of HEK293T cells transiently overexpressing caspase-6 (Homo sapiens, UniProt P10155); details: Probe; protein TROVE2 P10155
# proteins of HEK293T cells transiently overexpressing caspase-6 (Homo sapiens, UniProt P10155), sequence (P10155 whole entry): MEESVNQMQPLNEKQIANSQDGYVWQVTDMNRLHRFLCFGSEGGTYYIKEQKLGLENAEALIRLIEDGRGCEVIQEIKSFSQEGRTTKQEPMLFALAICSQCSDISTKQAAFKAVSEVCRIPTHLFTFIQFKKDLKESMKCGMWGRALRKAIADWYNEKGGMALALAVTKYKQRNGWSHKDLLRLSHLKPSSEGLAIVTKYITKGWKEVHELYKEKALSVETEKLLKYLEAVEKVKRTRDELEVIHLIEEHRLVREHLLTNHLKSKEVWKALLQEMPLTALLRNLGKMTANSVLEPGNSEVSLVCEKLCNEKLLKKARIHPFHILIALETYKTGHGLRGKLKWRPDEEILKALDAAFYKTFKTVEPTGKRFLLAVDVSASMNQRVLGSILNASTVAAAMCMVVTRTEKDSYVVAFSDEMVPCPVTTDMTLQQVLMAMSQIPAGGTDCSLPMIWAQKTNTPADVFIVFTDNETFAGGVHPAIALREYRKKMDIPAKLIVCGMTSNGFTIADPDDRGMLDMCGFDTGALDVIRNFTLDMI
# [17] = molecular target: proteins of HEK293T cells transiently overexpressing caspase-6 (Homo sapiens, UniProt P61221); details: exp_ref Probe; protein ABCE1 (P61221); analysis C6
# [18] = molecular target: proteins of HEK293T cells transiently overexpressing caspase-6 (Homo sapiens, UniProt O75533); details: exp_ref Probe; protein SF3B1 (O75533); analysis C6
# proteins of HEK293T cells transiently overexpressing caspase-6 (Homo sapiens, UniProt O75533), sequence (O75533 whole entry): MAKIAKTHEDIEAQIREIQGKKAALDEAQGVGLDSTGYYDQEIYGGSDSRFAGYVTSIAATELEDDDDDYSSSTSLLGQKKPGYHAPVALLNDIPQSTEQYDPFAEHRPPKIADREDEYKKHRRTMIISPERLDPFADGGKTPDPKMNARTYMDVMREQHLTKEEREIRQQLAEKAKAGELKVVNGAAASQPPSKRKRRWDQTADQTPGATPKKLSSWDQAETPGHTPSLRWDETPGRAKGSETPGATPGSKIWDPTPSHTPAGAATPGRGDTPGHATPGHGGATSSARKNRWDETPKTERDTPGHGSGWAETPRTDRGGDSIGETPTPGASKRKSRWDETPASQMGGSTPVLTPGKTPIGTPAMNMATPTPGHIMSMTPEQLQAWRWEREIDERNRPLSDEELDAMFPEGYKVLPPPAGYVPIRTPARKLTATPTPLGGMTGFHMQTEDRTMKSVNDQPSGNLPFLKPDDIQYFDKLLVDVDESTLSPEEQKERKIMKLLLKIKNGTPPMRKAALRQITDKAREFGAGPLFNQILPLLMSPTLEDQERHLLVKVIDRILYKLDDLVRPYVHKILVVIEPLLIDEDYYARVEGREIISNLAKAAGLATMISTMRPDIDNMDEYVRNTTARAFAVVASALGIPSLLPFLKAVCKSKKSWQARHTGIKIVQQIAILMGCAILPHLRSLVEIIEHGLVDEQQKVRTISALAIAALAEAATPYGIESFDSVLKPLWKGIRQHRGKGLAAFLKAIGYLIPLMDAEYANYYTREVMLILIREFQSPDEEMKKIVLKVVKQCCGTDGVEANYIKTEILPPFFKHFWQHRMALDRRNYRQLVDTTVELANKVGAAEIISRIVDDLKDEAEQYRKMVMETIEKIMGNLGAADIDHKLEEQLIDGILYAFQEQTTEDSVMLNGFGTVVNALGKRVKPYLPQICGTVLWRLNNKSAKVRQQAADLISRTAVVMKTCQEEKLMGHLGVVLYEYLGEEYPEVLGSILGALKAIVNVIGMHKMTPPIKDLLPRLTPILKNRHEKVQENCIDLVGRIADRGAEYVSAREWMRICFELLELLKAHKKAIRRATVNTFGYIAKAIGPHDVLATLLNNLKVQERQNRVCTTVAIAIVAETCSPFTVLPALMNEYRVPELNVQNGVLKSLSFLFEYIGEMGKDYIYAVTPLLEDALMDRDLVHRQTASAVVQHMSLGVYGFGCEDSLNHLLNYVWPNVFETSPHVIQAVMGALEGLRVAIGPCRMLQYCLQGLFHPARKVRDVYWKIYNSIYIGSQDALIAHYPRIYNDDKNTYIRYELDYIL
# proteins of HEK293T cells transiently overexpressing caspase-6 (Homo sapiens, UniProt Q96F25), sequence (Q96F25 whole entry): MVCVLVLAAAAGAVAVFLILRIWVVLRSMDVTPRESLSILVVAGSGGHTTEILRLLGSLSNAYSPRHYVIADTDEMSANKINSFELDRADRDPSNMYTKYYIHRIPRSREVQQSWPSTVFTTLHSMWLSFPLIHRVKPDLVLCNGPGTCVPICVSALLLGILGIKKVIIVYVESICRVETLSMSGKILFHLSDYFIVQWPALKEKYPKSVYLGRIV
smiles,measurement,setting,value
C#CCOc1ccc([C@@H]2C[C@@H](C(=O)Nc3ccc(OC(F)(F)F)cc3)CN(S(=O)(=O)C=C)C2)cc1 (relative stereo) [13-t],enrich.exp.med,[1],-1.074
same,enrich.exp.med,[2],1.143
same,enrich.exp.med,[3],0.444
same,enrich.exp.med,[4],0.04694
same,enrich.exp.med,"[5]; Probe, protein PRDX4 Q13162",-1.846
same,enrich.exp.med.lin,[5]; protein PRDX4 (Q13162),0.2781
same,enrich.exp.med.log2,[5]; protein PRDX4 (Q13162),-1.846
same,enrich.exp.med,[6],-1.066
same,enrich.exp.med,[7],0.5734
same,enrich.exp.med,"[8]; Probe, protein VIM P08670",-1.006
same,enrich.exp.med.lin,[8]; protein VIM (P08670),0.4978
same,enrich.exp.med.log2,[8]; protein VIM (P08670),-1.006
same,enrich.exp.med,[9],0.6428
same,enrich.exp.med.lin,[10],4.772
same,enrich.exp.med.log2,[10],2.255
same,enrich.exp.med.lin,"[10]; Expt Probe, analysis C6",4.772
same,enrich.exp.med.log2,"[10]; Expt Probe, analysis C6",2.255
same,enrich.exp.med,"[10]; exp_ref Probe, analysis C6",2.255
same,enrich.exp.med,[11],-0.03314
same,enrich.exp.med,[12],2.033
same,enrich.exp.med,[13],-0.052
same,enrich.exp.med,"[14]; exp_ref Probe, analysis C6",0.5104
same,enrich.exp.med.lin,[14],1.424
same,enrich.exp.med.log2,[14],0.5104
same,enrich.exp.med,"[15]; exp_ref Probe, analysis C6",-0.3533
same,enrich.exp.med.lin,[15],0.7828
same,enrich.exp.med.log2,[15],-0.3533
same,enrich.exp.med,[16],-1.006
same,enrich.exp.med,[17],-0.002133
same,enrich.exp.med,[18],0.3273
